The text below walks through data of ChEMBL document CHEMBL1126778, “Adenosine A1 antagonists. 3. Structure-activity relationships on amelioration against scopolamine- or N6-((R)-phenylisopropyl)adenosine-induced cognitive disturbance” (J Med Chem, 1993).

For assay [1], the system named is Mus musculus. In words: Acquisition time in (R)-PIA) induced avoidance test (performed in mice) for antagonistic activity after peroral administration of 0.08 mg/kg (n=15). In kind it is functional. Particulars: route oral.
Assay [2] has as its system Mus musculus. Description: Acquisition time in (R)-PIA) induced avoidance test (performed in mice) for antagonistic activity after peroral administration of 0.31 mg/kg (n=15). It counts as functional. Conditions: route oral.
For assay [3], the system named is Mus musculus. Description: Acquisition time in (R)-PIA) induced avoidance test (performed in mice) for antagonistic activity after peroral administration of 1.25 mg/kg (n=15). It counts as functional. Conditions: route oral.
Assay [4] concerns Mus musculus. In words: Retention time in (R)-PIA) induced avoidance test (performed in mice) for antagonistic activity after peroral administration of 1.25 mg/kg (n=15) (P<0.01). It counts as functional, organism-based. The arrangement: dose 1.25 mg/kg.
Assay [5] deals with Mus musculus. In words: Retention time in (R)-PIA) induced avoidance test (performed in mice) for antagonistic activity after peroral administration of 5 mg/kg. In kind it is functional, organism-based. The arrangement: dose 5 mg/kg.
Assay [6] has as its system Mus musculus. In words: Retention time in (R)-PIA) induced avoidance test (performed in mice) for antagonistic activity after peroral administration of 0.08 mg/kg (n=15) (P<0.01). In kind it is functional, organism-based. The arrangement: dose 0.08 mg/kg.
Assay [7] has as its system Mus musculus. Description: Retention time in (R)-PIA) induced avoidance test (performed in mice) for antagonistic activity after peroral administration of 0.31 mg/kg (n=15) (P<0.005). It counts as functional, organism-based. Also noted: dose 0.31 mg/kg.
For assay [8], the system named is Mus musculus. In words: Tested for locomotor activity after oral administration of 10 mg/kg for 120 min. It counts as functional.
Assay [9] concerns Mus musculus. Description: Tested for locomotor activity after oral administration of 40 mg/kg for 120 min. In kind it is functional.
Assay [10] concerns Mus musculus. Description: Tested for locomotor activity after oral administration of 6.25 mg/kg for 120 min. It counts as functional.
In assay [11] the test system is Rattus norvegicus. In words: Acquisition time in Scopolamine induced avoidance test (performed in rat) for antagonistic activity after peroral administration of 1.25 mg/kg. It counts as functional. Conditions: route oral.
Assay [12] concerns Rattus norvegicus. Description: Acquisition time in Scopolamine induced avoidance test (performed in rat) for antagonistic activity after peroral administration of 5 mg/kg. In kind it is functional. Conditions: route oral.
Assay [13] has as its system Rattus norvegicus. Description: Acquisition time in Scopolamine induced avoidance test (performed in rat) for antagonistic activity after peroral administration of 0.02 mg/kg (n=13). In kind it is functional. Particulars: route oral.
The subject of assay [14] is Rattus norvegicus. Description: Acquisition time in Scopolamine induced avoidance test (performed in rat) for antagonistic activity after peroral administration of 0.08 mg/kg (n=13). It counts as functional. Conditions: route oral.
The subject of assay [15] is Rattus norvegicus. In words: Acquisition time in Scopolamine induced avoidance test (performed in rat) for antagonistic activity after peroral administration of 0.31 mg/kg (n=13). In kind it is functional. Conditions: route oral.
Assay [16] deals with Rattus norvegicus. Description: Retention time in Scopolamine induced avoidance test (performed in rat) for antagonistic activity after peroral administration of 0.02 mg/kg (n=13). The arrangement: dose 0.02 mg/kg. In kind it is functional, organism-based.
Assay [17] deals with Rattus norvegicus. Description: Retention time in Scopolamine induced avoidance test (performed in rat) for antagonistic activity after peroral administration of 0.08 mg/kg (n=13) (P<0.01). It counts as functional, organism-based. The arrangement: dose 0.08 mg/kg.
The test system of assay [18] is Rattus norvegicus. Description: Retention time in Scopolamine induced avoidance test (performed in rat) for antagonistic activity after peroral administration of 0.31 mg/kg (n=13) (P<0.005). The arrangement: dose 0.31 mg/kg. In kind it is functional, organism-based.
Assay [19] concerns Rattus norvegicus. Description: Retention time in Scopolamine induced avoidance test (performed in rat) for antagonistic activity after peroral administration of 5 mg/kg. It counts as functional, organism-based. Also noted: dose 5 mg/kg.
The subject of assay [20] is Mus musculus. In words: Acquisition time in (R)-PIA) induced avoidance test (performed in mice) for antagonistic activity after peroral administration of 5 mg/kg. In kind it is functional. Conditions: route oral.
In a further assay the target is Adenosine A2 receptor (Rattus norvegicus, UniProt P29276+P30543). In words: Binding affinity at Adenosine A2 receptor from rat striatal membranes by N-[3H] ethyladenosin-5'- uronamide displacement.
Assay [21] concerns Mus musculus. In words: Acquisition time in (R)-PIA) induced avoidance test (performed in mice) for antagonistic activity after peroral administration of 0.08 mg/kg. It counts as functional. Particulars: route oral.
Assay [22] relates to Mus musculus. In words: Acquisition time in (R)-PIA) induced avoidance test (performed in mice) for antagonistic activity after p.o. administration of 0.31 mg/kg. Conditions: route oral. It counts as functional.
For assay [23], the system named is Mus musculus. Description: Acquisition time in (R)-PIA) induced avoidance test (performed in mice) for antagonistic activity after p.o. administration of 1.25 mg/kg. In kind it is functional. Particulars: route oral.
Assay [24] deals with Mus musculus. In words: Retention time in (R)-PIA) induced avoidance test (performed in mice) for antagonistic activity after p.o. administration of 1.25 mg/kg. In kind it is functional, organism-based. Also noted: dose 1.25 mg/kg.
Assay [25] relates to Mus musculus. In words: Retention time in (R)-PIA) induced avoidance test (performed in mice) for antagonistic activity after peroral administration of 0.08 mg/kg. In kind it is functional, organism-based. Also noted: dose 0.08 mg/kg.
Assay [26] has as its system Mus musculus. Description: Retention time in (R)-PIA) induced avoidance test (performed in mice) for antagonistic activity after peroral administration of 0.31 mg/kg. Also noted: dose 0.31 mg/kg. It counts as functional, organism-based.
In assay [27] the test system is Rattus norvegicus. Description: Acquisition time in Scopolamine induced avoidance test (performed in rat) for antagonistic activity after peroral administration of 20 mg/kg. It counts as functional. Conditions: route oral.
Assay [28] relates to Rattus norvegicus. In words: Acquisition time in Scopolamine induced avoidance test (performed in rat) for antagonistic activity after p.o. administration of 0.08 mg/kg. It counts as functional. Conditions: route oral.
Assay [29] has as its system Rattus norvegicus. In words: Acquisition time in Scopolamine induced avoidance test (performed in rat) for antagonistic activity after p.o. administration of 0.31 mg/kg. Conditions: route oral. It counts as functional.
Assay [30] deals with Rattus norvegicus. In words: Acquisition time in Scopolamine induced avoidance test (performed in rat) for antagonistic activity after p.o. administration of 5 mg/kg. In kind it is functional. Conditions: route oral.
The subject of assay [31] is Rattus norvegicus. In words: Retention time in Scopolamine induced avoidance test (performed in […]) for antagonistic activity after peroral administration of 5 mg/kg. In kind it is functional, organism-based. The arrangement: dose 5 mg/kg.
In assay [32] the test system is Rattus norvegicus. In words: Retention time in Scopolamine induced avoidance test (performed in rat) for antagonistic activity after p.o. administration of 0.08 mg/kg. Also noted: dose 0.08 mg/kg. In kind it is functional, organism-based.
In assay [33] the test system is Rattus norvegicus. In words: Retention time in Scopolamine induced avoidance test (performed in rat) for antagonistic activity after p.o. administration of 0.31 mg/kg. It counts as functional, organism-based. Also noted: dose 0.31 mg/kg.
In assay [34] the test system is Rattus norvegicus. In words: Retention time in Scopolamine induced avoidance test (performed in rat) for antagonistic activity after peroral administration of 1.25 mg/kg. The arrangement: dose 1.25 mg/kg. It counts as functional, organism-based.
For assay [35], the system named is Rattus norvegicus. In words: Retention time in Scopolamine induced avoidance test (performed in rat) for antagonistic activity after peroral administration of 20 mg/kg (n=19). The arrangement: dose 20 mg/kg. It counts as functional, organism-based.
Assay [36] has as its system Rattus norvegicus. In words: Acquisition time in Scopolamine induced avoidance test (performed in rat) for antagonistic activity after peroral administration of 1.25 mg/kg (n=20). In kind it is functional. Conditions: route oral.
Assay [37] deals with Mus musculus. In words: Retention time in (R)-PIA) induced avoidance test (performed in mice) for antagonistic activity after peroral administration of 0.02 mg/kg.
Assay [38] relates to Mus musculus. Description: Acquisition time in (R)-PIA) induced avoidance test (performed in mice) for antagonistic activity after peroral administration of 0.02 mg/kg. Conditions: route oral.
The subject of assay [39] is Mus musculus. Description: Tested for locomotor activity after oral administration of 5 mg/kg for 120 min. It counts as functional.
In assay [40] the test system is Mus musculus. Description: Tested for locomotor activity after oral administration of 1.25 mg/kg for 120 min. It counts as functional.
Assay [41] concerns Rattus norvegicus. Description: Retention time in Scopolamine induced avoidance test (performed in rat) for antagonistic activity after peroral administration of 20 mg/kg (n=10). In kind it is functional, organism-based. The arrangement: dose 20 mg/kg.

In general, Ki refers to the dissociation constant of the complex between target and ligand, obtained from inhibition or displacement. Low readings indicate a stronger hold on the target, high ones a looser hold on the target.

The structures appear in SMILES notation.

`CCCn1c(=O)c2[nH]c(C3CCCC3)nc2n(CCC)c1=O` [1,3-DIPROPYL-8-CYCLOPENTYLXANTHINE [DPCPX]]: the Acquisition time is 19.4 s in the assay on Mus musculus [1]; 19.1 s in the assay on Mus musculus [2]; 20.5 s with Mus musculus [3]; 12.4 s in the assay with Rattus norvegicus [11]; 14.6 s in the assay on Rattus norvegicus [12]; 19.8 s with Rattus norvegicus [13]. For the same compound, the Acquisition time with Rattus norvegicus [14] was determined as 21.5 s; in the assay on Rattus norvegicus [15], 24.7 s; with Mus musculus [20] it was 18.4 s. Also, the Retention time in the assay on Mus musculus [4] turned out to be 272 s; with Mus musculus [5], 433 s; in the assay with Mus musculus [6], 190 s; in the assay with Mus musculus [7], 456 s; in the assay on Rattus norvegicus [16], 32 s; in the assay on Rattus norvegicus [17] it was 105 s. Further, the Retention time is 273 s with Rattus norvegicus [18] and 68.7 s in the assay on Rattus norvegicus [19]. The Locomotor activity in the assay with Mus musculus [8] worked out at 4679 Counts; in the assay on Mus musculus [9], 5257 Counts; with Mus musculus [10], 3826 Counts.

As for `CCCn1c(=O)c2nc(C3CCC(=O)C3)[nH]c2n(CCc2ccc(N)cc2)c1=O` (stereo not drawn), the Ki at Adenosine A2 receptor is greater than 100 µM. The Acquisition time with Mus musculus [21] turned out to be 16.4 s; in the assay on Mus musculus [22], 17.5 s; in the assay on Mus musculus [23], 14.6 s; with Rattus norvegicus [27] it was 13.6 s; in the assay with Rattus norvegicus [28], 10.5 s; in the assay with Rattus norvegicus [29], 13.1 s. Further, the Acquisition time is 10.2 s in the assay with Rattus norvegicus [30], 12.9 s in the assay with Mus musculus [20], 12.1 s with Rattus norvegicus [36] and 14.2 s in the assay with Mus musculus [38]. The Retention time turned out to be 19.1 s in the assay with Mus musculus [24]; 67.7 s in the assay with Mus musculus [5]; 18.7 s in the assay on Mus musculus [25]; 23.4 s in the assay with Mus musculus [26]; 108 s in the assay with Rattus norvegicus [31]; 119 s in the assay with Rattus norvegicus [32]. The Retention time with Rattus norvegicus [33] came to 109 s; with Rattus norvegicus [34] it was 163 s; in the assay on Rattus norvegicus [35], 117 s; in the assay on Mus musculus [37], 73.9 s.

Consider `CCCN1C(=O)N2CC(CC)N=C2c2[nH]c(C34CC5CC(CC3C5)C4)nc21` (racemic), for which the Acquisition time was determined as 23.5 s in the assay on Mus musculus [21]; 22.7 s with Mus musculus [22]; 21.2 s in the assay on Mus musculus [23]; 14.1 s in the assay on Rattus norvegicus [11]; 26.6 s with Rattus norvegicus [27]; 21.3 s in the assay on Rattus norvegicus [28]. In addition, the Acquisition time with Rattus norvegicus [29] was 17.3 s; with Rattus norvegicus [30], 22.5 s; with Mus musculus [20], 24.9 s; with Mus musculus [38] it was 23 s. Moreover, the Retention time worked out at 231 s in the assay on Mus musculus [24]; 277 s in the assay with Mus musculus [5]; 196 s in the assay on Mus musculus [25]; 292 s with Mus musculus [26]; 66.3 s with Rattus norvegicus [31]; 251 s with Rattus norvegicus [32]. Moreover, the Retention time with Rattus norvegicus [33] came out at 221 s; in the assay on Rattus norvegicus [34] it was 40.8 s; in the assay with Rattus norvegicus [41] it was 21 s; in the assay with Mus musculus [37], 168 s. For the same compound, the Locomotor activity in the assay on Mus musculus [39] is recorded as 6907 Counts. The compound further gave a Locomotor in the assay with Mus musculus [40] of 5761 Counts.
